“And” between values parts separate entries of the source, which are not always exact repeats. Identical values can stand only once.
What was measured:
Type in all cases: in vivo, mouse
[1] = tested on: AT3-OVA mammary tumors; assay: AT3-OVA tumor growth in Rag1-/- mice; parameters: key to Tumour growth: tumour size in mm^2 (two-dimensional caliper measurement); Tumour weights: unit not given here; settings: for Tumour size RAG1, mean: in mm2
Description: (§1) Male or female mice were injected subcutaneously with 5 × 10^5 MC38 tumor cells resuspended in 100 μl D-PBS into the flank. Alternatively, female mice were injected orthotopically with 5 × 10^5 AT3 or AT3-OVA or PTPN2-deleted AT3 or AT3-OVA tumor cells resuspended in 20 μl D-PBS into the fourth mammary fat pad. Tumor sizes were measured in two dimensions (mm^2) using electronic callipers two to three times per week as soon as tumors were palpable (20–25 mm^2).

[2] = Serum liver enzymes AST and ALT; parameters: Serum ALT: unit not given here
Source text: CD3ε (BD Biosciences Cat# 553058) and CD28 (BD Biosciences Cat# 557393) antibodies for T cell stimulation and NK1.1 (BD Biosciences Cat# 564143) antibody for NK cell stimulation were purchased from BD Biosciences. Ly49H (clone 3D10, BioLegend Cat# 144702) antibody for NK stimulation was from BioLegend. For analyzing T cell signaling, p-(Y418) SFK (Thermo Fisher Scientific Cat# 14-9034-82) was from Invitrogen and p-(Y694) STAT-5 (D47E7) XP® (Cell Signaling Technology Cat# 4322) was from Cell Signaling. Recombinant human IL-2, recombinant murine IL-7 and recombinant human IL-15 were purchased from the PeproTech, recombinant mouse IL-12 and recombinant human IL-18 were from Australia Biosearch and […] (N4) from Mimotopes. InVivoMAb anti-mouse PD-1 (Bio X Cell Cat# BE0146) and InVivoMAb rat IgG2a isotype control (Bio X Cell Cat# BE0251) were purchased from Bio X Cell. DNase I was from Sigma-Aldrich. Rabbit monoclonal PTP1B (Abcam Cat# ab244207) antibody for flow cytometry was from Abcam and mouse monoclonal PTPN2 6F3 antibody for immunoblotting and flow cytometry was from MédiMabs (Cat# MM-019-P). Mouse anti-actin (Thermo Fisher Scientific Cat# MA5-11866) from Invitrogen and mouse α-tubulin (Sigma-Aldrich Cat# T5168) was from Merck. The mouse anti-nuclear antibodies Ig’s (total IgA+G + M) ELISA Kit was from Alpha Diagnostic Int. and the Transaminase II Kit from Wako Pure Chemicals. FBS was purchased from Thermo Scientific, RPMI 1640, DMEM, MEM, HEPES, non-essential amino acids, penicillin/streptomycin, and sodium-pyruvate were from Invitrogen, collagenase type IV was purchased from Worthington Biochemical and ABBV-CLS-484 was from MedChemExpress (Cat# HY-145923).

[3] = tested on: AT3-OVA mammary tumors; assay: AT3-OVA tumor growth in Lck-Cre;Ptpn2fl/fl mice; parameters: key to Tumour growth: tumour size in mm^2 (two-dimensional caliper measurement); settings: for Tumour growth: AT3-OVA tumours, individual mice (Figure 7A)
Description: as §1

[4] = tested on: p-STAT-1 and CD3 in AT3-OVA tumors; assay: Immunohistochemistry for p-STAT-1 (Y701) and CD3 in AT3-OVA tumors; settings: 10 mg/kg i.v.
Description: For the immunohistochemistry analysis of mammary tumor samples, samples were dissected and fixed in 10% formalin. After fixation, the tissues were embedded in paraffin and sectioned onto microscopic glass slides at 4 μm thickness per section. After deparaffinization and rehydration, the slides were subjected to antigen retrieval in Tris/EDTA buffer (pH 8.0) at 120 °C for 10 min and then cooled down to room temperature. The slides were blocked with 5% (v/v) normal goat serum (NGS) containing 0.1% (v/v) TritonX-100 in PBS for 1 h at room temperature and then incubated with primary antibody p-STAT-1 (Tyr701) (1:500; Cell Signaling Technology), or CD3ε (1:1000; Dako) at room temperature for 1 h. Slides were then washed with PBS containing 0.05% (w/v) Tween-20 and visualized using a rabbit IgG VECTORSTAIN ABC Elite and DAB (3,3′‐diaminobenzidine) Peroxidase Substrate Kit (Vector Laboratories, UK) and counterstained with haematoxylin. Slides were imaged on an Olympus CX43 microscope (Olympus, Tokyo, Japan).

## CC(C)(O)CCOc1ccc2cc(O)c(N3CC(=O)NS3(=O)=O)c(F)c2c1 [Compound 182, 5-(1-Fluoro-3-hydroxy-7-(3-hydroxy-3-methylbutoxy)naphthalen-2-yl)−1,2,5-thiadiazolidin-3-one 1,1-dioxide]
[1]; 10 mg/kg i.v., mice lack T and B cells
  AT3-OVA mammary tumor growth in Rag1-/- mice: no effect
[1]; Figure 6E, RAG1 mice, n=6, individual animals, day 9 post injection, listed as CMP-182
  Tumour growth: 7.7488 and 14.8962 and 11.224 and 3.9597 and 9.447 and 12.6224
[1]; Figure 6E, RAG1 mice, n=6, individual animals, day 11 post injection, listed as CMP-182
  Tumour growth: 19.6245 and 35.0523 and 26.8632 and 16.6934 and 15.0024 and 31.8592
[1]; Figure 6E, RAG1 mice, n=6, individual animals, day 14 post injection, listed as CMP-182
  Tumour growth: 31.9081 and 32.6823 and 36.7674 and 25.1923 and 36.3137 and 48.8592
[1]; Figure 6E, RAG1 mice, n=6, individual animals, day 16 post injection, listed as CMP-182
  Tumour growth: 59.5752 and 89.2808 and 73.4616 and 57.4821 and 68.9011 and 83.2686
[1]; Figure 6E, RAG1 mice, n=6, individual animals, day 18 post injection, listed as CMP-182
  Tumour growth: 74.7088 and 110.046 and 88.7004 and 79.0656 and 57.8454 and 92.4255
[1]; Figure 6E, RAG1 mice, n=6, individual animals, day 21 post injection, listed as CMP-182
  Tumour growth: 75.82 and 124.872 and 109.74 and 89.0525 and 89.04 and 103.68
[1]; Figure 6E, RAG1 mice, n=6, individual animals, day 23 post injection, listed as CMP-182
  Tumour growth: 84.728 and 134.64 (3×) and 89.0525 and 133.35
[1]; Figure 6E, RAG1 mice, n=6, individual animals, day 25 post injection, listed as CMP-182
  Tumour growth: 88 and 156.6 and 126.72 and 89.0525 and 186.66 and 168.74
[1]; Figure 6E, RAG1 mice, n=6, individual animals, listed as CMP-182
  Tumour weights: 270 and 560 and 890 and 220 and 490 and 330
[1]; RAG1 mice, column B (Data Set-B), n=6, Figure 6E
  TUMOR WEIGHTS RAG1, median: 410.0, n=6
[1]; RAG1 mice, n=6, Figure 6E, mean of 8 time points
  Tumour size RAG1, mean over all time points (column mean): 72.3 mm2
[1]; RAG1 mice, n=6, time point 9, Figure 6E
  Tumour size RAG1, mean: 9.983
[1]; RAG1 mice, n=6, time point 11, Figure 6E
  Tumour size RAG1, mean: 24.18
[1]; RAG1 mice, n=6, time point 14, Figure 6E
  Tumour size RAG1, mean: 35.29
[1]; RAG1 mice, n=6, time point 16, Figure 6E
  Tumour size RAG1, mean: 71.99
[1]; RAG1 mice, n=6, time point 18, Figure 6E
  Tumour size RAG1, mean: 83.8
[1]; RAG1 mice, n=6, time point 21, Figure 6E
  Tumour size RAG1, mean: 98.7
[1]; RAG1 mice, n=6, time point 23, Figure 6E
  Tumour size RAG1, mean: 118.5
[1]; RAG1 mice, n=6, time point 25, Figure 6E
  Tumour size RAG1, mean: 136
[2]; 10 mg/kg i.v.
  circulating aspartate aminotransferase (AST): moderately increased
  serum alanine aminotransferase (ALT): unaffected
[2]; Figure 10C, individual mice, listed as CMP-182
  Serum ALT: 680.498 and 1112.03 and 497.925 and 464.73 and 414.938 and 597.51 and 697.095 and 730.29
[2]; Figure 10C, individual mice, listed as CMP-182, in U/L (unit assumed)
  Serum AST: 1826.92 and 3480.77 and 2019.23 and 1211.54 and 1250 and 1519.23 and 2346.15 and 4019.23
[2]; Figure 10C, serum ALT, median, n=8
  GPT, median: 639.0, n=8
[2]; Figure 10C, serum AST, median, n=8
  GOT, median: 1923, n=8
[3]; 10 mg/kg i.v., effects modest
  growth of AT3-OVA tumors in Lck-Cre;Ptpn2fl/fl mice: additionally repressed the growth
[3]; Lck-Cre;Ptpn2fl/fl mice n=6, day 7 post injection, listed as CMP-182
  Tumour growth: 39.6 and 38.4 and 28.91 and 24.91 and 14.4 and 25
[3]; Lck-Cre;Ptpn2fl/fl mice n=6, day 9 post injection, listed as CMP-182
  Tumour growth: 40.2 and 33 and 27.36 and 24.44 and 20.64 and 28.6
[3]; Lck-Cre;Ptpn2fl/fl mice n=6, day 11 post injection, listed as CMP-182
  Tumour growth: 40.8 and 26.46 and 22.5 and 19.89 and 25.38 and 17.64
[3]; Lck-Cre;Ptpn2fl/fl mice n=6, day 13 post injection, listed as CMP-182
  Tumour growth: 44.8 and 30.25 and 16 and 20.25 and 29.64 and 25.38
[3]; Lck-Cre;Ptpn2fl/fl mice n=6, day 16 post injection, listed as CMP-182
  Tumour growth: 44.16 and 40.92 and 16 and 18.9 and 20.68 and 31.11
[3]; Lck-Cre;Ptpn2fl/fl mice n=6, day 19 post injection, listed as CMP-182
  Tumour growth: 38.94 and 25 and 15.2 and 25.92 and 33.48 and 38.34
[3]; Lck-Cre;Ptpn2fl/fl mice n=6, day 22 post injection, listed as CMP-182
  Tumour growth: 38.94 and 28.08 and 25.08 and 22.36 and 21 and 35
[3]; Lck-Cre;Ptpn2fl/fl mice n=6, individual mice (Figure 7B), listed as CMP-182, in mg (unit assumed)
  Tumour weights: 123 and 76 and 120 and 82 and 67 and 156
[4]
  p-STAT-1 signaling and T cell infiltrates in AT3-OVA tumors of Lck-Cre;Ptpn2fl/fl mice: did not further increase
[4]; C57BL/6 mice
  p-STAT-1 staining and abundance of CD3ε+ T cells in AT3-OVA tumors: increased

Reference: article PMC10374545, “A small molecule inhibitor of PTP1B and PTPN2 enhances T cell anti-tumor immunity” (Nature Communications, 2023)
